SMILES strings stand for the structures. Numbered stars: 1 amine (or outer) side, 2 acyl side, 3 side chain; on linkers, the order of the positions; unused ones are H or OH. Square brackets hold non-standard residues; d marks the D form. Peptide text beside a SMILES is read from it. Nva(5-(4-Bn-piperidin-1-yl)) = N[C@@H](CCCN1CCC(Cc2ccccc2)CC1)C(=O)O; X1 = O=C1[C@@H](N[*:1])Cc2ccccc2CN1CCC(=O)[*:2]; Dmt = Cc1cc(O)cc(C)c1C[C@H](N)C(=O)O; NMeF = CN[C@@H](Cc1ccccc1)C(=O)O; Tic = O=C(O)[C@@H]1Cc2ccccc2CN1

Assay [1] concerns the target T1, Neuropeptide FF receptor 1 (Homo sapiens, UniProt Q9GZQ6). In words: Displacement of [125I]YVP from human NPFFR1 expressed in HEK293 cells by radioligand binding assay. The class given is cell-based. (Displacement assays read how much labelled ligand stays bound in the presence of the test substance.)
Assay [2] in a line: Binding affinity to NPFFR in rat spinal cord. The class given is tissue-based.
For assay [3], the target named is T2, Neuropeptide FF receptor 2 (Homo sapiens, UniProt Q9Y5X5). In words: Displacement of [125I]-1DMeNPFF from human NPFFR2 expressed in HEK293 cells incubated for 2 hrs by scintillation counting method. The class given is cell-based.
Assay [4] addresses T2, Neuropeptide FF receptor 2. The assay can be described thus: Agonist activity at human NPFFR2 expressed in CHO cells assessed as inhibition of forskolin-induced intracellular cAMP production incubated for 5 hrs by firefly/renilla luciferase reporter assay. The class given is functional, cell-based. For orientation: Cyclic AMP is a second messenger, typically raised through Gs and lowered through Gi signalling.

Assay [5] has as its target T2, Neuropeptide FF receptor 2. The assay can be described thus: Displacement of TAMRA-NPFF from human NPFFR2 expressed in CHO-K1 cells preincubated for 15 mins followed by GTPgammaS addition and measured after 15 to 120 mins by competitive binding assay. The class given is cell-based.
Assay [6] can be described thus: Displacement of [ […]]Y8Famide from NPFFR in rat spinal cord membranes. The class given is cell membranes, Membrane.
In assay [7] the target is T1, Neuropeptide FF receptor 1. In words: Agonist activity at NPFFR1 (unknown origin) expressed in HEK293T cells harboring EP2 incubated for 15 mins by cAMP assay relative to control. To be noted: filed as agonist. The class given is functional, cell-based.
In assay [8] the target is T1, Neuropeptide FF receptor 1. The assay can be described thus: Agonist activity at NPFFR1 (unknown origin) expressed in HEK293T cells harboring EP2 incubated for 15 mins by cAMP assay. The class given is functional, cell-based.
The target in assay [9] is T2, Neuropeptide FF receptor 2. The assay can be described thus: Agonist activity at NPFFR2 (unknown origin) expressed in mouse NIH3T3 cells by receptor selection and amplification technology assay relative to control. The class given is cell-based. To be noted: filed as agonist.
Assay [10] addresses T2, Neuropeptide FF receptor 2. In words: Agonist activity at NPFFR2 (unknown origin) expressed in HEK293T cells harboring EP2 incubated for 15 mins by cAMP assay relative to control. The class given is functional, cell-based. To be noted: filed as agonist.
In assay [11] the target is T1, Neuropeptide FF receptor 1. In words: Agonist activity at NPFFR1 (unknown origin) expressed in mouse NIH3T3 cells by receptor selection and amplification technology assay. The class given is cell-based.
In assay [12] the target is T1, Neuropeptide FF receptor 1. In words: Agonist activity at NPFFR1 (unknown origin) expressed in mouse NIH3T3 cells by receptor selection and amplification technology assay relative to control. The class given is cell-based.
Assay [13] has as its target T1, Neuropeptide FF receptor 1. In words: Displacement of [125I]YVP from human NPFFR1 expressed in CHO cells. The class given is cell-based.
For assay [14], the target named is T2, Neuropeptide FF receptor 2. The assay can be described thus: Displacement of [125I]Tyr-NPFF from human NPFFR2 expressed in green monkey Cos-1 cells. The class given is cell-based.
Assay [15] in a line: Displacement of [125I][Tyr1]-NPFF from NPFF receptor in rat spinal cord membranes by Cheng-Prusoff analysis. The class given is cell membranes, Membrane.
In a further assay the test system is Mus musculus. In words: Reversal of morphine-induced analgesia in icv dosed CDF1 mouse assessed as minimum effective dose measured after 15 mins by tail-flick test. The class given is functional. To be noted: 0.25 h.
The target in assay [16] is T2, Neuropeptide FF receptor 2. In words: Agonist activity at human NPFFR2 expressed in CHO cells by [35S]-GTP S binding assay relative to control. The class given is cell-based.
For assay [17], the target named is Kappa-type opioid receptor (Homo sapiens, UniProt P41145). The assay can be described thus: Agonist activity at human kappa opioid receptor expressed in HEK293 cells assessed as inhibition of forskolin-induced cAMP accumulation incubated for 15 mins followed by forskolin addition in presence of IBMX by Glo-sensor cAMP assay relative to control. The class given is functional, cell-based.

Assay [18] has as its target T1, Neuropeptide FF receptor 1. The assay can be described thus: Agonist activity at human NPFFR1 expressed in CHO cells by [35S]-GTP S binding assay relative to control. The class given is cell-based.
Assay [19] concerns the target Delta-type opioid receptor (Homo sapiens) (UniProt P41143). In words: Agonist activity at human delta-opioid receptor expressed in HEK293 cells assessed as inhibition of forskolin-induced cAMP accumulation preincubated for 15 mins followed by forskolin addition in presence of IBMX by Glo-sensor cAMP assay relative to control. To be noted: filed as agonist. The class given is functional, cell-based.

Assay [20] addresses Mu-type opioid receptor (Homo sapiens) (UniProt P35372). The assay can be described thus: Agonist activity at human mu-opioid receptor expressed in HEK293 cells assessed as inhibition of forskolin-induced cAMP accumulation preincubated for 15 mins followed by forskolin addition in presence of IBMX by Glo-sensor cAMP assay relative to control. To be noted: filed as agonist. The class given is functional, cell-based.

For assay [21], the target named is Neuropeptide FF receptor 1 (Rattus norvegicus, UniProt Q9EP86). In words: Displacement of [125I](Tyr)NPF from rat NPFFR1 expressed in rat PC12 cells incubated for 1 hr. The class given is cell-based, PC-12.
For assay [22], the target named is T2, Neuropeptide FF receptor 2. The assay can be described thus: Agonist activity at human NPFFR2 expressed in CHO cells assessed as stimulation of [35S]-GTPgammaS binding preincubated for 30 mins followed by [35S]-GTPgammaS stimulation and measured after 30 mins by scintillation counting method. The class given is functional, cell-based.
Assay [23] deals with Neuropeptide FF receptor 2 (Rattus norvegicus) (UniProt Q9EQD2). In words: Agonist activity at rat NPFFR2 by cell-based assay relative to control. To be noted: filed as agonist.
Neuropeptide FF receptor 2 (Rattus norvegicus), sequence (Q9EQD2 whole entry): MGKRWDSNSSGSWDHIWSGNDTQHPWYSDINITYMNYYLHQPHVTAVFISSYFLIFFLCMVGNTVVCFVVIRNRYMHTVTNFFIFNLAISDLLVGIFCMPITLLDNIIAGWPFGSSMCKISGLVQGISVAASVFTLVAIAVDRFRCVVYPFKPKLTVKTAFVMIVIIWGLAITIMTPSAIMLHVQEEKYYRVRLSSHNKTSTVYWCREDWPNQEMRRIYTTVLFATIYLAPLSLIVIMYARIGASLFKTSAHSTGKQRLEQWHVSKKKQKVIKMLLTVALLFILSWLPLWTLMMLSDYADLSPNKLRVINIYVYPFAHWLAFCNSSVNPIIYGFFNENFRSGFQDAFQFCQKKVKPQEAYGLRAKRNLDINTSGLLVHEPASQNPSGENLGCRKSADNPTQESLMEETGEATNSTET

T1 sequence (Q9GZQ6 whole entry): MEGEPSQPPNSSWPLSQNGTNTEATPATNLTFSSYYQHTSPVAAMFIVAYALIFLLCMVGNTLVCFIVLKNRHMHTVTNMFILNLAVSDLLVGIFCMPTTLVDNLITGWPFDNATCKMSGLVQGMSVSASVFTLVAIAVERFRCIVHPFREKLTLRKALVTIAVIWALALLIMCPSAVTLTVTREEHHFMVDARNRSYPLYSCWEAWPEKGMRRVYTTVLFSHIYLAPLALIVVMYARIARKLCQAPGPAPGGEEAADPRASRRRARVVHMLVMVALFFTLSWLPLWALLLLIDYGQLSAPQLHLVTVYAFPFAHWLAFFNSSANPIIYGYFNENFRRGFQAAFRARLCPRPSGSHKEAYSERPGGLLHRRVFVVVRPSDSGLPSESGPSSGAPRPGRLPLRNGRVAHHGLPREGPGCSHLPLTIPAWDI
T2 sequence (Q9Y5X5 whole entry): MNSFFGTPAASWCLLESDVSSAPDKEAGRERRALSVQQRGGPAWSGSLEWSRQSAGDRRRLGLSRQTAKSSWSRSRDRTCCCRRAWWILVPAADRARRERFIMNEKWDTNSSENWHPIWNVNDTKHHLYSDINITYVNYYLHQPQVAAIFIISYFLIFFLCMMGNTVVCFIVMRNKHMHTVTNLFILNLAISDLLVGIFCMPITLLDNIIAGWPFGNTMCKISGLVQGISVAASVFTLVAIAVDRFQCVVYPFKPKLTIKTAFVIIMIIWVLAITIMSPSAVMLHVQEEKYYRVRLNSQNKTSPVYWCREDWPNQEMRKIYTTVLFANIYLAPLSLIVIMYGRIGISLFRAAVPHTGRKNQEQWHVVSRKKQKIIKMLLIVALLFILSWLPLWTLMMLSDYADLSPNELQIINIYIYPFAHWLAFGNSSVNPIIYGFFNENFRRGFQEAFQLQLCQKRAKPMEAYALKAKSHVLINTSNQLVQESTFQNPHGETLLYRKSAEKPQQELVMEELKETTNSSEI
Neuropeptide FF receptor 1 (Rattus norvegicus, UniProt Q9EP86), sequence (Q9EP86 whole entry): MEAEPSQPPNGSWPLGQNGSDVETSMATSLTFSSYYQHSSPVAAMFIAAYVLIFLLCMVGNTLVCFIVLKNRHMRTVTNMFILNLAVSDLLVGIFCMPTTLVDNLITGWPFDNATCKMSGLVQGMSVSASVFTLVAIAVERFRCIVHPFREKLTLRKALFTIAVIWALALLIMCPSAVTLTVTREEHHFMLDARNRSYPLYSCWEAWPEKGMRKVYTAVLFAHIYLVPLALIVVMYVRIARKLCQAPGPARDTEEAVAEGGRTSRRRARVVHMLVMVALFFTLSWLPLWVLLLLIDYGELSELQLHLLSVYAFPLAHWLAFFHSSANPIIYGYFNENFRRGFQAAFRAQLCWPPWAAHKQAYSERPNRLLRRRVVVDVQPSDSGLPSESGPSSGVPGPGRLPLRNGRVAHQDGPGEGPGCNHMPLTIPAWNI
Kappa-type opioid receptor, sequence (P41145 whole entry): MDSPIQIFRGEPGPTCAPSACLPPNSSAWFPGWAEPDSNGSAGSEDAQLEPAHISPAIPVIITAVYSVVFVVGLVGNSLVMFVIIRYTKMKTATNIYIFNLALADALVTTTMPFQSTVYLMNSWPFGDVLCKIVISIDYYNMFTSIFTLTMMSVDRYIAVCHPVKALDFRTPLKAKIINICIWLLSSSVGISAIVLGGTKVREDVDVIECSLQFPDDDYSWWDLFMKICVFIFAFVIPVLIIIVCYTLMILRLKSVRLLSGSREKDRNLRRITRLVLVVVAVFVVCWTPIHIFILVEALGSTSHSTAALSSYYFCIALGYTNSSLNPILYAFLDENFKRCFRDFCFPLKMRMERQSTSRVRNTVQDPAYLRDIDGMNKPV
Mu-type opioid receptor (Homo sapiens), sequence (P35372 whole entry): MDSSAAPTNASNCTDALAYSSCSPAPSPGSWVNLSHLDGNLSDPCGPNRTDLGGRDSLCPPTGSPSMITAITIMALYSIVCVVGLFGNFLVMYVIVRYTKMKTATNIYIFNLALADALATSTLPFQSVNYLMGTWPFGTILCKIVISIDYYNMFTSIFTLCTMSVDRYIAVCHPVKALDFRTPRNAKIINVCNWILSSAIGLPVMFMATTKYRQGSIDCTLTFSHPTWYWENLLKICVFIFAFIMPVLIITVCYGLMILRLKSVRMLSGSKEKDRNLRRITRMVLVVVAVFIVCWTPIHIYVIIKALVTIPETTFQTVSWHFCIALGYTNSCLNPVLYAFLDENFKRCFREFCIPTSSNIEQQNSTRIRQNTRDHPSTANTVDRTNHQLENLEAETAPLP
Delta-type opioid receptor (Homo sapiens), sequence (P41143 whole entry): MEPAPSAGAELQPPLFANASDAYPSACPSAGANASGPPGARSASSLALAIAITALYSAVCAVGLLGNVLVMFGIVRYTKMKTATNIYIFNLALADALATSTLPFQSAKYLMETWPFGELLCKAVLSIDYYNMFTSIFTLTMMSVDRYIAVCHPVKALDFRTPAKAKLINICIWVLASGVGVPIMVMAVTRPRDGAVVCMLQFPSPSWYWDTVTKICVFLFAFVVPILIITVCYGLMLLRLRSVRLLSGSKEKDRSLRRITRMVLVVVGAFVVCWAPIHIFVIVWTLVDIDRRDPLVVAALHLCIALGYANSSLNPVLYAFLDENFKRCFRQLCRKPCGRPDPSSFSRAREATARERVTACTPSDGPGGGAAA

With `CC(C)C[C@H](NC(=O)[C@H](N)Cc1ccc(O)cc1)C(=O)N(C)[C@@H](Cc1ccccc1)C(=O)N[C@@H](CCC(N)=O)C(=O)N1CCC[C@H]1C(=O)N[C@@H](CCC(N)=O)C(=O)N[C@@H](CCCN=C(N)N)C(=O)N[C@@H](Cc1ccccc1)C(N)=O` (H-[dY]L[NMeF]QPQRF-NH2), the Ki – broadly, a dissociation constant, usually derived from enzyme kinetics or from competition with a known ligand – was 2 nM in assay [1], 0.07 nM in [2] and 3.2 nM in assay [3].

On to `COc1cc2c(c(OC)c1OC)-c1c(cc(C)c(C)c1OC)[C@@H](C(=O)Oc1ccccc1)[C@@](C)(O)[C@@H](C)C2`, for which, in assay [4], the EC50 (commonly the midpoint of the concentration-response curve) came out at 1470 nM. In assay [5], this molecule yielded a Ki of 1.42 nM.

The molecule `CN(C)c1cccc2c(S(=O)(=O)N3CCC[C@H]3C(=O)N[C@@H](CCC(N)=O)C(=O)N[C@@H](CCCNC(=N)N)C(N)=O)cccc12` [DANSYLPQRAMIDE] yielded a Ki in assay [6] of 13000 nM.

As to `N=C(N)N/N=C/c1ccc(Cl)c(C(F)(F)F)c1`, the Efficacy in assay [7] came out at 42%; in assay [9], 108%; in assay [10], 89%; in assay [12], 30.6%. The EC50 in assay [8] and in [11] was 3160 nM each time.

Take `NC(N)=NCCC[C@H](NC(=O)C(c1ccccc1)c1ccccc1)C(=O)NCc1ccc(O)cc1`: the Ki in assay [13] came out at 12 nM; in assay [14], 461 nM.

Take `CC(C)C[C@H](NC(=O)[C@@H](N)Cc1ccc(O)cc1)C(=O)N[C@@H](Cc1ccccc1)C(=O)N[C@@H](CCC(N)=O)C(=O)N1CCC[C@H]1C(=O)N[C@@H](CCC(N)=O)C(=O)N[C@@H](CCCN=C(N)N)C(=O)N[C@@H](Cc1ccccc1)C(N)=O` (H-YLFQPQRF-NH2): the affinity in [15], expressed as Ki, was 0.2 nM. For the same molecule, the MEC in the assay with Mus musculus stood at 8.8 nmol.

For `Cc1cc(O)cc(C)c1C[C@H](N)C(=O)N[C@H](CCCNC(=N)N)C(=O)N[C@H]1Cc2ccccc2CN(CCC(=O)N[C@@H](CCCN2CCC(Cc3ccccc3)CC2)C(=O)N[C@@H](Cc2ccccc2)C(N)=O)C1=O` (H-[Dmt][dR][X1][Nva(5-(4-Bn-piperidin-1-yl))]F-NH2), the Emax (in general, the size of the effect at its maximum, as opposed to the concentration needed) worked out at 38% in assay [16]; 34% in assay [17]; 10% in assay [18]; 90% in [19]; 85% in assay [20].

As for `N=C(N)NCCC[C@H](NC(=O)[C@H](Cc1ccccc1)NC(=O)[C@@H]1CCCN1)C(=O)N1Cc2ccccc2C[C@H]1C(N)=O` (H-PFR[Tic]-NH2), in assay [21], the IC50 (commonly the midpoint of a concentration-inhibition curve) is 0.1 nM and the affinity, expressed as Ki, was 101 nM. In addition, the concentration giving a half-maximal response (EC50) in assay [22] turned out to be 2400 nM.

`CC(C)C[C@H](NC(=O)[C@@H](N)Cc1ccccc1)C(=O)N[C@@H](Cc1ccccc1)C(=O)N[C@@H](CCC(N)=O)C(=O)NCC(=O)N[C@@H](CCC(N)=O)C(=O)N[C@@H](CCCN=C(N)N)C(=O)N[C@@H](Cc1ccccc1)C(N)=O` (H-FLFQGQRF-NH2): the Ki in assay [15] came out at 1.2 nM. Besides, in the assay on Mus musculus, the MEC worked out at 8.8 nmol.

In [23], `Cc1cc(NC(=N)N)nc2ccc(Cl)cc12` displayed an Emax of 61%.

The values are drawn from ChEMBL document CHEMBL4765381, “Neuropeptide FF and Its Receptors: Therapeutic Applications and Ligand Development” (J Med Chem, 2020).
